Results reported in PMC12535076, “Neurotherapeutic effects of Vutiglabridin as a Paraoxonase-2 modulator in preclinical models of Parkinson’s disease” (Molecular Neurodegeneration, 2025).

Key:
PON2 = target: T1, PON2 (Mus musculus, UniProt Q62086); assay: PON2 activity assay (esterase and lactonase) in A53T-infected astrocytes; format: cell-based; details: primary cultured astrocytes infected with A53T virus, Vuti 24 h
T1 construct: we infected a primary cultured cortical astrocytes with AAV-CMV-αsyn-A53T virus; endogenous in cells; host or cells: primary cultured cortical astrocytes infected with AAV-CMV-αsyn-A53T
Protocol: To assess PON2 activity following Vuti treatment, we infected a primary cultured cortical astrocytes with AAV-CMV-αsyn-A53T virus. Five days post-infection, we treated the cells with Vuti for 24 h and conducted esterase and lactonase assays. For the esterase activity evaluation, reactions were initiated by adding 1 mM p-nitrophenyl acetate (pNPA) to the PON2 activity assay buffer. Enzymatic hydrolysis was monitored by measuring the absorbance at 412 nm. For lactonase activity, the reactions were initiated with 1 mM thio-butyrolactone (TBBL) and 1 mM 5,5’-dithiobis(2-nitrobenzoic acid) (DTNB) in the PON2 activity assay buffer, with absorbance measured at 420 nm to monitor enzymatic hydrolysis.

[1] = system: AAV-A53T injected C57BL/6J mice; assay: AAV-α-syn A53T-injected mouse model; format: in vivo
Protocol: Male C57BL/6J mice (7 week-age-old) were used for inducing the α-syn A53T model and treating Vuti and vehicle. All mice were maintained in a specific pathogen-free animal facility under a 12:12-h light-dark cycle (lights on at 8:00 AM) at a temperature of 21℃ and allowed ad libitum access to food and water. All experiments and animal care were performed in accordance with the guidelines of the Institutional Animal Care and Use Committee (IACUC) of IBS, Daejeon, South Korea (IBS-IBC-2022-12). Mice were anesthetized under isoflurane anesthesia (induction: 3%–4%, maintenance: 1.5%–2%) and placed into stereotaxic (RWD, China). For establishing the α-syn A53T mouse model, 2µL of AAV-CMV-A53T-Asyn or AAV-CMV-EGFP (5 × 10^12 genomic copies/mL, packaged by the IBS virus facility) was injected into the SNpc (AP − 3.2 mm, ML ± 1.3 mm, DV − 4.0 mm relative to the bregma; 0.2µL/min) bilaterally. Oral administration of 50 mg/kg Vuti (Vuti 50) or the vehicle (Veh) was started 5 weeks after the virus injection, once a day for 12 weeks. Mice were used for behavior tests and immunostaining after completing drug treatment. Vertical grid test was performed as described before. For 5 days, mice were allowed for habituation in the test room. Prior to the trial session, the mice were acclimated to the vertical grid for 2 days. For the experiment, individual mice were gently placed 3 cm from the top, facing upward, and allowed to turn around and climb down. […] Starting from the fourth week after the injection, trials are conducted at two-week intervals.
Mice were deeply anaesthetized with isoflurane and perfused transcranial with 0.9% saline ice-cold 4% paraformaldehyde (PFA). Excised brains were postfixed at 4 °C overnight and transferred to 30% sucrose for 48 h for dehydration. Coronal sections of 30 μm thickness (20 μm thickness for super-resolution imaging) were prepared in a cryostat and stored in a storage solution at 4 °C. Brain tissues were washed in PBS and incubated in a blocking solution (0.3% Triton X-100, 2% Donkey Serum, 2% Goat Serum in 0.1 M PBS). Primary antibodies were added to the blocking solution at desired dilution and the sections were incubated in a shaker at 4 °C overnight. Primary antibodies used for immunostaining were anti-TH (rabbit, 1:200, Pel-freez, P40101-150), GFAP (chicken, 1:500, Millipore, AB5541), Iba-1 (rabbit, 1:500, Wako, 019-19741), DDC (rabbit, 1:200, abCam, ab3905), GABA (guinea pig, 1:200, Millipore, AB175), anti-PON2 (rabbit, 1:200, abCam, ab183710). Unbound antibodies were washed off using PBS, followed by corresponding secondary antibody incubation (in blocking solution) for 1–2 h at room temperature. Unbound antibodies were washed with PBS and DAPI was added to PBS (1:1500 dilution). Sections were mounted with fluorescent mounting medium (Dako) and dried. A series of fluorescent images were obtained using Zeiss LSM900 confocal microscope. Super-resolution image for PON2 signals imaged by Zeiss Lattice SIM (Structure-illumination microscope) and all images were processed using ImageJ (Fiji) software.

CCOc1ccc(C2COc3c(ccc4c3CCC(C)(C)O4)C2)c(O)c1 (stereo not drawn) [Vuti, Vutiglabridin]
PON2 esterase and lactonase activities (PON2): increased
GFAP and Iba1 levels (astrocytes and microglia) ([1]; A53T mice, Vuti 50 mg/kg): normalization
amount of GABA in astrocytes ([1]; A53T mice, Vuti 50 mg/kg): decrease
intracellular α-syn levels ([1]; A53T mice, Vuti 50 mg/kg): decreased
step failure in the vertical grid test ([1]; A53T mice, Vuti 50 mg/kg oral from week 5, within 5 to 7 weeks of administration (weeks 10-12)): statistically significant improvements
DDC-positive cells in SNpc ([1]; A53T mice, Vuti 50 mg/kg, 12 weeks after AAV-A53T injection): significantly increased
TH-positive cells in SNpc ([1]; A53T mice, Vuti 50 mg/kg, 12 weeks after AAV-A53T injection, vs vehicle): significant increase
PON2 protein level ([1]; A53T mouse model and WT + Vuti group, IHC and Western blot): remained unchanged
TH+/DDC+ ratio ([1]; α-syn A53T overexpressed PD model): doubled
